In patent publication US9776972B2, “Pyrazole derivatives as arginine methyltransferase inhibitors and uses thereof” (priority 2013, dated 2017):
Read-outs that look alike come from different tables or passages of the source.

Key:
human PRMT6 = biological target: T1, human PRMT6 (Homo sapiens, UniProt Q96LA8); test: PRMT6 Biochemical Assay (3H-SAM Flashplate, peptide substrate)
T1 construct: Flag-PRMT6-His; made in house; host or cells: HEK 293F cells (BacMam baculovirus)
Text: (§1) S-adenosylmethionine (SAM), S-adenosylhomocysteine (SAH), bicine, Tween20, dimethylsulfoxide (DMSO), bovine skin gelatin (BSG), sodium butyrate and Tris(2-carboxyethyl)phosphine hydrochloride solution (TCEP) were purchased from Sigma-Aldrich at the highest level of purity possible. ^3H-SAM was purchase from American Radiolabeled Chemicals with a specific activity of 80 Ci/mmol. 384-well streptavidin Flashplates were purchased from PerkinElmer.
Peptide representative of human histone H4 residues 36-50 was synthesized with an N-terminal linker-affinity tag motif and a C-terminal amide cap by 21st Century Biochemicals.
The amplified gene was subcloned into pFastBacMam (Viva Biotech).
Recombinant baculovirus were generated according to Bac-to-Bac kit instructions (Life Technologies). […] Infections were carried out at 37° C. for 48 hours, harvested by centrifugation, and stored at −80° C. for purification.
Column was washed with 20 mM imidazole in the same buffer and Flag-PRMT6-His was eluted with 150 mM imidazole. […] Flag-PRMT6-His was eluted with 200 ug/ml FLAG peptide in the same buffer. Pooled fractions were dialysed in 20 mM Tris, 150 mM NaCl, 10% glycerol and 5 mM β-mercaptoethanol, pH 7.8.
General Procedure for PRMT6 Enzyme Assays on Peptide Substrates.
(§2) The assays were all performed in a buffer consisting of 20 mM Bicine (pH=7.6), 1 mM TCEP, 0.005% BSG, and 0.002% Tween 20, prepared on the day of use. […] DMSO (1 ul) was added to Columns 11, 12, 23, 24, rows A-H for the maximum signal control and 1 ul of SAH, a known product and inhibitor of PRMT6, was added to columns 11, 12, 23, 24, rows I-P for the minimum signal control. A cocktail (40 ul) containing the PRMT6 enzyme was added by Multidrop Combi (Thermo-Fisher). The compounds were allowed to incubate with PRMT6 for 30 min at room temperature, then a cocktail (10 ul) containing SAM and peptide was added to initiate the reaction (final volume=51 ul). […] The assays were stopped by the addition of non-radiolabeled SAM (10 ul) to a final concentration of 400 uM, which dilutes the ^3H-SAM to a level where its incorporation into the peptide substrate is no longer detectable. 50 ul of the reaction in the 384-well polypropylene plate was then transferred to a 384-well Flashplate and the biotinylated peptides were allowed to bind to the streptavidin surface for at least 1 hour before being washed once with 0.1% Tween20 in a Biotek ELx405 plate washer. The plates were then read in a PerkinElmer TopCount plate reader to measure the quantity of ^3H-labeled peptide bound to the Flashplate surface, measured as disintegrations per minute (dpm) or alternatively, referred to as counts per minute (cpm).
(§3) Where dpm=disintegrations per minute, cmpd=signal in assay well, and min and max are the respective minimum and maximum signal controls.
(§4) Where top and bottom are the normally allowed to float, but may be fixed at 100 or 0 respectively in a 3-parameter fit. The Hill Coefficient normally allowed to float but may also be fixed at 1 in a 3-parameter fit. Y is the % inhibition and X is the compound concentration.

human PRMT1 = biological target: T2, human PRMT1 (Homo sapiens, UniProt Q99873); test: PRMT1 Biochemical Assay (3H-SAM Flashplate, peptide substrate); details: single experiment or average of multiple experiments
T2 construct: GST-tagged PRMT1; made in house; host or cells: High Five insect cells (baculovirus)
Text: as §1, with “(BSG),” for “(BSG), sodium butyrate”
Recombinant baculovirus were generated according to Bac-to-Bac kit instructions (Life Technologies). […] Infections were carried out at 27° C. for 48 hours, harvested by centrifugation, and stored at −80° C. for purification.
GST-tagged PRMT1 was eluted with 50 mM Tris, 2 mM glutathione, pH 7.8, dialysed in buffer A and concentrated to 1 mg/mL.
General Procedure for PRMT1 Enzyme Assays on Peptide Substrates.
as §2, with “PRMT1,” for “PRMT6,”, “PRMT1” for “PRMT6”, “300” for “400”
as §3, §4

[1] = tested on: mono-methyl arginine in RKO cells; test: RKO Methylation Assay, In Cell Western (ICW) for mono-methyl arginine and DNA content; type: cell-based; details: Homo sapiens, RKO, 72 h
Text: RKO adherent cells were purchased from ATCC (American Type Culture Collection), Manassas, Va., USA. DMEM/Glutamax medium, penicillin-streptomycin, heat inactivated fetal bovine serum, 0.05% trypsin and D-PBS were purchased from Life Technologies, Grand Island, N.Y., USA. Odyssey blocking buffer, 800CW goat anti-rabbit IgG (H+L) antibody, and Licor Odyssey infrared scanner were purchased from Licor Biosciences, Lincoln, Nebr., USA. Mono-methyl arginine antibody was purchased from Cell Signaling Technology, Danvers, Mass., USA. Methanol was purchased from VWR, Franklin, Mass., USA. 10% Tween 20 was purchased from KPL, Inc., Gaithersburg, Md., USA. DRAQ5 was purchased from Biostatus Limited, Leicestershire, UK.
RKO adherent cells were maintained in growth medium (DMEM/Glutamax medium supplemented with 10% v/v heat inactivated fetal bovine serum and 100 units/mL penicillin-streptomycin) and cultured at 37° C. under 5% CO2.
Cell Treatment, in Cell Western (ICW) for Detection of Mono-Methyl Arginine and DNA Content.
RKO cells were seeded in assay medium at a concentration of 20,000 cells per mL to a poly-D-lysine coated 384 well culture plate (BD Biosciences 356697) with 50 μL per well. Compound (100 nL) from a 96-well source plate was added directly to 384 well cell plate. Plates were incubated at 37° C., 5% CO2 for 72 hours. After three days of incubation, plates were brought to room temperature outside of the incubator for ten minutes and blotted on paper towels to remove cell media. 50 μL of ice cold 100% methanol was added directly to each well and incubated for 30 min at room temperature. After 30 min, plates were transferred to a Biotek EL406 plate washer and washed 2 times with 100 μL per well of wash buffer (1×PBS). Next 60 μL per well of Odyssey blocking buffer (Odyssey Buffer with 0.1% Tween 20 (v/v)) were added to each plate and incubated 1 hour at room temperature. Blocking buffer was removed and 20 μL per well of primary antibody was added (mono-methyl arginine diluted 1:200 in Odyssey buffer with 0.1% Tween 20 (v/v)) and plates were incubated overnight (16 hours) at 4° C. Plates were washed 5 times with 100 μL per well of wash buffer. Next 20 μL per well of secondary antibody was added (1:200 800CW goat anti-rabbit IgG (H+L) antibody, 1:1000 DRAQ5 (Biostatus limited) in Odyssey buffer with 0.1% Tween 20 (v/v)) and incubated for 1 hour at room temperature. The plates were washed 5 times with 100 μL per well wash buffer then 2 times with 100 μL per well of water. Plates were allowed to dry at room temperature then imaged on the Licor Odyssey machine which measures integrated intensity at 700 nm and 800 nm wavelengths. Both 700 and 800 channels were scanned.
First, the ratio for each well was determined by:
Each plate included fourteen control wells of DMSO only treatment (minimum activation) as well as fourteen control wells for maximum activation treated with 20 μM of a reference compound. The average of the ratio values for each control type was calculated and used to determine the percent activation for each test well in the plate. Reference compound was serially diluted three-fold in DMSO for a total of nine test concentrations, beginning at 20 μM. Percent activation was determined and EC30 curves were generated using triplicate wells per concentration of compound.

[2] = Biochemical IC50 PRMT6, single experiment or average of multiple experiments
[3] = RKO cells, 72 hours, mono-methyl arginine, percent activation, class symbols, read-out: EC30 (In Cell Western data)
[4] = RKO cells, 72 hours, mono-methyl arginine, percent activation, single experiment or average of multiple experiments, read-out: EC30 (In Cell Western data, Numerical)
[5] = single experiment or average of multiple experiments, read-out: Biochemical IC50 PRMT6

T2 sequence (Q99873 with tags, fused parts or gaps): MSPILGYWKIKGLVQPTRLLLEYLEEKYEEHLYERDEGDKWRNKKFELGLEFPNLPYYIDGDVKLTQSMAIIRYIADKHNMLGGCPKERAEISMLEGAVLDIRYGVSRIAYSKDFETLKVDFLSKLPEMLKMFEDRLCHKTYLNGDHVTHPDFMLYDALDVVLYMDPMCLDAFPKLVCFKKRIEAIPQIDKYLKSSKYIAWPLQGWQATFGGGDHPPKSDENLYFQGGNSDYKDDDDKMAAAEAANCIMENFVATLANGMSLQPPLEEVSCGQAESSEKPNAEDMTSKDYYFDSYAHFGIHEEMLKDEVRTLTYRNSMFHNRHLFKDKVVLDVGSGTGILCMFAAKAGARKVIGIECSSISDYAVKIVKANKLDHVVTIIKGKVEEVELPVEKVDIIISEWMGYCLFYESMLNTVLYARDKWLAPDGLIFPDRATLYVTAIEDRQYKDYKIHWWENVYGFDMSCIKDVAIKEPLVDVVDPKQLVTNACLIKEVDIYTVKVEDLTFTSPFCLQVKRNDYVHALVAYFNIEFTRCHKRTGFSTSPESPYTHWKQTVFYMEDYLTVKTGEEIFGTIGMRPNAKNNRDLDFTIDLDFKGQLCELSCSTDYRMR
T1 sequence (Q96LA8 with tags, fused parts or gaps): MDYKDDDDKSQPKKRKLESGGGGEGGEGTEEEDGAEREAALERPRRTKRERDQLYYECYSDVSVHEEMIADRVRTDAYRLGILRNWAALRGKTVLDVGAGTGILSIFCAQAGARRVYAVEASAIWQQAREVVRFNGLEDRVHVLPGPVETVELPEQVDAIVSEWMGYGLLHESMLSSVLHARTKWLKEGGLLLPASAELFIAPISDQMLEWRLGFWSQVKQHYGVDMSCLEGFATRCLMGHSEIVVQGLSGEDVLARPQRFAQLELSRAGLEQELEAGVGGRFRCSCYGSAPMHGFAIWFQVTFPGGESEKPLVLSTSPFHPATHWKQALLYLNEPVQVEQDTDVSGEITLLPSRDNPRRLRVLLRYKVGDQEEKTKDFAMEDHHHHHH

Structure (SMILES)	IC50 (human PRMT6; [2])	EC30 [1, 4]	IC50 (human PRMT6; Biochemical IC50 PRMT6)	other results
CCC(CO)Oc1ccc(-c2n[nH]cc2CN(C)CCNC)cc1 (stereo not drawn) [Compound 287]	–	0.202 µM	< 100 nM	EC30 [1, 3]: < 3 µM; IC50 (human PRMT6; [5]): 24.8 nM
CN(CCN)Cc1c[nH]nc1-c1ccc(N2CCN(C(=O)Cc3ccccc3)CC2)cc1 [Compound 190]	–	8.39 µM	–	IC50 (human PRMT6; [5]): 20.1 nM
CN(CCN)Cc1cn(CC2COC2)nc1-c1ccc(F)cc1 [Compound 79]	> 10000 nM	> 20 µM	> 10000 nM	–
CNCCN(C)Cc1cnn(C)c1-c1ccc(OC(C)C)c(Cl)c1 [Compound 220, N^1-((5-(3-chloro-4-isopropoxyphenyl)-1-methyl-1H-pyrazol-4-yl)methyl)-N^1,N^2-dimethylethane-1,2-diamine]	–	0.211 µM	–	IC50 (human PRMT6; [5]): 23.1 nM
COCCn1cc(CN(C)CCN(C)C)c(-c2ccc(F)cc2)n1 [Compound 61]	> 10000 nM	–	> 10000 nM	–
CN(CCN)Cc1c(-c2ccc(C#N)cc2)cnn1C [Compound 84]	> 10000 nM	–	> 10000 nM	–
CN(CCN)Cc1c[nH]nc1-c1ccc(Oc2ccccc2)cc1 [Compound 200]	–	0.596 µM	–	–
COCCn1cnc(-c2ccc(C#N)cc2)c1CN(C)CCN [Compound 223]	> 10000 nM	> 20 µM	> 10000 nM	–
CN(CCN)Cc1cnn(CC2COC2)c1-c1ccc(F)cc1 [Compound 80]	> 10000 nM	> 20 µM	> 10000 nM	–
CNCCN(C)Cc1c[nH]nc1-c1ccc(Oc2cccc(C(=O)NC)c2)cc1 [Compound 263]	1.92 nM	–	–	EC30 ([1]; read-out: EC30 (In Cell Western data, Numerical, μM)): 1.29 µM; IC50 (human PRMT1): 4.35 nM
CN(CCN1CCCC1)Cc1c[nH]nc1-c1ccc(C#N)cc1 [Compound 139]	> 10000 nM	> 20 µM	> 10000 nM	–

More lines, main results first:

IC50 (human PRMT6; [2])	Structure (SMILES)	EC30 [1, 4]	IC50 (human PRMT6; Biochemical IC50 PRMT6)	other results
2730 nM	CN(CCN)Cc1cn(CC(O)CO)nc1-c1ccc(F)cc1 (stereo not drawn) [Compound 76]	–	–	IC50 (human PRMT1): 6390 nM
24.6 nM	CCOc1ccc(-c2n[nH]cc2CN(C)CCNC)cc1 [Compound 294]	0.224 µM	< 100 nM	EC30 [1, 3]: < 3 µM
3.18 nM	CNCCN(C)Cc1c[nH]nc1-c1ccc(Oc2cccc(C(=O)N(C)C)c2)cc1 [Compound 264]	3.52 µM	–	–
1570 nM	COCCn1ncc(CN(C)CCN(C)C)c1-c1ccc(F)cc1 [Compound 64]	–	–	–
2.73 nM	CNCCN(C)Cc1n[nH]cc1-c1ccc(Oc2cccc(C(=O)N(C)C)c2)cc1 [Compound 269]	14.9 µM	–	–
13.3 nM	CN(CCN)Cc1c[nH]nc1-c1ccc(OCCCN2CCOCC2)cc1 [Compound 186]	12.8 µM	–	–
5.17 nM	CNCCN(C)Cc1n[nH]cc1-c1ccc(Oc2ccccc2C(=O)NC)cc1 [Compound 278]	8.23 µM	–	–
10.6 nM	CNCCN(C)Cc1c[nH]nc1-c1ccc(OC(C)C)cc1 [Compound 19, N^1-((3-(4-isopropoxyphenyl)-1H-pyrazol-4-yl)methyl)-N^1,N^2-dimethylethane-1,2-diamine]	0.067 µM	–	–
2370 nM	CN(CCN)Cc1cn(CC2CCOCC2)nc1-c1ccc(F)cc1 [Compound 128]	–	–	IC50 (human PRMT1): 6500 nM
9.24 nM	CNCCN(C)Cc1cn[nH]c1-c1ccc(OC(C)C)c(Cl)c1 [Compound 201]	0.255 µM	–	–
4.74 nM	CNCCN(C)Cc1c[nH]nc1-c1ccc(Oc2ccccc2)c(C#N)c1 [Compound 234]	–	–	IC50 (human PRMT1): 7.75 nM
